Data published in the NIST ThermoML archive (doi:10.1016/j.jct.2016.12.034).
Numbers after ± are expanded uncertainties.

Conditions: Crystal; for vapor or sublimation pressure: Transpiration method

CC(=O)Nc1ccc(/C=N/NC(N)=S)cc1 [Thioacetazone]
Conditions	Normal melting temperature [°C]	vapor or sublimation pressure [kPa]
404.15 K	–	1.89e-05 ± 2.1e-06
406.15 K	–	2.23e-05 ± 2.5e-06
408.15 K	–	2.81e-05 ± 3.2e-06
410.15 K	–	3.67e-05 ± 4.1e-06
412.15 K	–	4.46e-05 ± 5e-06
415.15 K	–	6.04e-05 ± 6.6e-06
417.15 K	–	7.03e-05 ± 8.1e-06
420.15 K	–	0.0001125 ± 1.3e-05
423.15 K	–	0.0001414 ± 1.5e-05
425.15 K	–	0.0001651 ± 1.9e-05
427.15 K	–	0.0002376 ± 2.7e-05
429.15 K	–	0.0002851 ± 3.1e-05
DTA	229.00 ± 0.5	–
